Data taken from US4816487A, “1-(2-hydroxyaryl)-alkane-1-on-oximes-procedure of preparation and use in pharmaceuticals” (Humboldt-Universitaet zu Berlin, priority 1985, dated 1989).

Columns and labels:
[1] = system: trachea isolated from guinea pig; experiment: carbachol-induced contraction of trachea isolated from guinea pig; details: spasm by 3.9 μM carbachol; clearly detectable even at 50 μM of active substance
Protocol: Action of 5-methyl-2-hydroxy-laurophenone-oxime on carbachol-induced contraction of trachea isolated from guinea pig:
The compound was checked for anti-asthmatic activity by means of measuring methods well established and known from the literature (cf p. 5) but modified for the purpose of this invention, using a tracheal spiral isolated from guinea pig. Measurements were conducted in thermostat-controlled organ bath in isotonic condition, using a contraction gauge with lever-type sensor, measuring coil, and measuring amplifier (inductive measurement by means of high-frequency oscillating circuit). Air was used for gassing. The suspension solution was of the following composition: 39.46 g of sodium chloride, 2.2 g of potassium chloride, 6.07 g of tris, 1.0 g of calcium chloride, 9.9 g of glucose, 1.0 ml of saturated magnesium chloride solution, 43 ml 1N hydrochloric acid per 5 l, pH 7.4.
Spasm was induced by 3.9 μM of carbachol.

[2] = target: T1, lipoxygenase-1 from soybean (Glycine max, UniProt P08170); experiment: inhibition of soybean lipoxygenase-1; format: biochemical; details: ultimate concentration 1.0 mM; read-out: Inhibition (percent) of lipoxygenase from soybean
T1 construct: purchased
T1 sequence (P08170 1-839): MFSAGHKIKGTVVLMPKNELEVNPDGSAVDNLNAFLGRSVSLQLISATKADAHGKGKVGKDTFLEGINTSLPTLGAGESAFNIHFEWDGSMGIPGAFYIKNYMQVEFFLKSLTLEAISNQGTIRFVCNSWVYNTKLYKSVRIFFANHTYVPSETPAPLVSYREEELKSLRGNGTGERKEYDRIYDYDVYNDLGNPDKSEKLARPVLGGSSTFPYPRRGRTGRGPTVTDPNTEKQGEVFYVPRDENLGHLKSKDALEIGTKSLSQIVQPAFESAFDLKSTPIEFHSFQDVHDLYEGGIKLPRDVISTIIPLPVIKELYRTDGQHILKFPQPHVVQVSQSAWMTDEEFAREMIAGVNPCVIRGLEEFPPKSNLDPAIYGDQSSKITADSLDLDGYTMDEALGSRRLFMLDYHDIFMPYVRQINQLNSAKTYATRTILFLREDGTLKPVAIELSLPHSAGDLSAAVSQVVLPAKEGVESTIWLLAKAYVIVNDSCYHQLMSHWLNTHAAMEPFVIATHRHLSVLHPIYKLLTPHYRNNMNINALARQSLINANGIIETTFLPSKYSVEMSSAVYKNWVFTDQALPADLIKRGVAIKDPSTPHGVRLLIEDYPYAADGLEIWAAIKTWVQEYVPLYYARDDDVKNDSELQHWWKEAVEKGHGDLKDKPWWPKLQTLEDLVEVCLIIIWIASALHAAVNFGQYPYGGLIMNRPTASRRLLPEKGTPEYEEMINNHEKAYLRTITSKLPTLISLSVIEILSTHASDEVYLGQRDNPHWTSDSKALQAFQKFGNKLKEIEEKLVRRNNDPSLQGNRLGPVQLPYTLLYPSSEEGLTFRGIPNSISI
Protocol: Persuasive evidence to inhibition of lipoxygenase was produced by a suitable animal lipoxygenase which had been isolated from rabbit reticulocytes, using a method by Rapoport and coworkers /S. M. Rapoport et al., Eur. J. Biochem. 96, 545 (1979)/. A final concentration of 1 mM of most of the compounds, according to this invention, produced inhibition of 90 percent or more (cf. Example 20). Significant inhibition was even recordable from a final concentration of 0.1 mM of some of the compounds, according to this invention. Substance concentrations were varied to determine the titration curves of inhibition and from these the half-inhibition concentrations (I50 -values). A half-inhibition concentration of 7 μM was established for 5-methyl-2-hydroxy-laurophenone-oxime, an oxime of high anti-asthmatic effectiveness.
Lipoxygenase from rabbit reticulocytes was obtained in electrophoretically and immunologically pure form by means of the method described in the literature /S. M. Rapoport et al., Eur. J. Biochem. 96, 545 (1979)/. Lipoxygenase activity was determined at 25° C. by amperometric measurement of oxygen consumption by means of a Clark electrode in the following system: 0.1M potassium phosphate, pH 7.4, with 0.2-per-cent sodium cholate and 0.53 mM linoleic acid. The enzyme concentration was […] in the sample for measurement. The substances submitted for testing were dissolved in methyl glycol (fresh distillation in vacuum) and pre-incubated ten minutes with the enzyme at measurement temperature and in the absence of sodium cholate and linoleic acid. […] No remarkable inhibition occurred to control samples under these conditions. Enzyme reaction was started by addition of sodium cholate and linoleic acid. The titration curve of inhibition and, consequently, the concentrations required for inhibition by the order of 50 per cent were determined by variation of active substance concentrations. For comparison, the compounds were tested also on commercial lipoxygenase-1 from soybean.

[3] = solubility in water; format: physicochemical; details: visible from unambiguous clouding of the sample
[4] = system: sensitised guinea pig; experiment: allergen (ovalbumin)-induced bronchoconstriction in vivo of sensitised guinea pig (allergic asthma of guinea pig); details: for tolerance of additional/successive ovalbumin injections: pretreated animals, two additional (three successive) injections of 40 μg ovalbumin
From the text: These pharmacological properties were largely verified by measuring methods which were, basically, known from the literature. They were, however, applied in a modified form. […] 63, 1 (1979); M. W. Schneider and J. M. Drazen, Amer. Rev. Resp. Dis. 121, 835 (1980); S. S. Yen and W. Kreutner, Agents Actions 10, 174 (1980); S. S. Yen, Prostaglandins 22, 183 (1981); Adcock, J. J.; Garland, L. G.; Brit. J. Pharmacol. 69, 167 (1980); W. Diamantis, J. L. Melton; D. Sofia et al., Europ. J. Pharmacol. 56, 407 (1979); P. Anderson, Brit. J. Pharmacol. 77, 301 (1982)].
It was, remarkably, observed that all control animals died of apnoea after one single intraperitoneal application of ovalbumin (40 μg/kg body weight), following protracted and extremely severe asthmatic reaction (anaphylactic shock?).
Action on allergen-induced bronchoconstriction in vivo of sensitised guinea pig ("allergic asthma of guinea pig"):
This test was applied to male guinea pigs, 30 to 35 days from sensitisation, using 330 mg of aluminium hydroxide and 33 μg of ovalbuminper one kilogram of body weight (fresh preparation in physiological sodium chloride solution).
(Method was modified according to P. Anderson, Brit. J. Pharmacol. 77, 301 (1982).) The animals were anaesthetised by intraperitoneal application of 1.3 g/kg body weight of urethane, while 2 mg/kg body weight of Pavulon® were intravenously injected for muscular relaxation. Intravenous injection of 40 μg of ovalbumin triggered off the allergen-induced bronchoconstriction which developed to the full scale of anaphylactic shock in all control animals, within few seconds. The animals, tracheostomised and with venous catheters, were artificially ventilated at rhythmic negative pressure in a tank respirator (f=16 min^-1; inspiration:expiration=1:1). Gas flow(V), breathing volume (VT), and ECG were checked in the course of pneumotachography. The animals had been pretreated by two intraperitoneal injections of finely crushed 5-methyl-2-hydroxylaurophenone-oxime, suspended in agar-agar. […]

CCCCCCCCCCCC(=NO)c1cc(C)ccc1O [5-methyl-2-hydroxy-laurophenone-oxime]
dilatation after carbachol-induced spasm [1]: strong dilatation
inhibition at 1000 µM [2]: 67%
solubility in water [3]: limited solubility in water
inhibition of ovalbumin-induced asthma reaction ([4]; 2 x 10 mg/kg i.p., 90 and 60 minutes prior, 40 μg ovalbumin i.v., all probands): Complete inhibition
tolerance of additional/successive ovalbumin injections [4]: tolerated without reaction
tolerance of additional/successive ovalbumin injections ([4]; listed as 5-methyl-2-hydroxyl-laurophenone-oxime): tolerated without any sign of bronchoconstriction
